Each structure is given as a SMILES string. pKi: −log10 of the molar value.

In this assay the target is GST-tagged-Wee1 kinase (Homo sapiens, UniProt P30291). In words: Wee1 time-resolved fluorescence equilibrium binding assay (displacement of Oregon Green-labeled ATP-competitive kinase probe). The procedure: Wee1 kinase was assayed using a time-resolved fluorescence equilibrium binding assay monitoring displacement of a rapidly reversible Oregon Green-labeled ATP-competitive kinase probe (N-(2-(2-(2-(4-(4-(5-chloro-4-(2-(1-hydroxycyclobutyl)thiazol-5-yl)-1H-pyrrolo[2,3-b]pyridin-2-yl)phenyl)piperazin-1-yl)ethoxy)ethoxy)ethyl)-2′,7′-difluoro-3′,6′-dihydroxy-3-oxo-3H-spiro[isobenzofuran-1,9′-xanthene]-5-carboxamide) by competitive Wee1 inhibitors.
Sequence of GST-tagged-Wee1 kinase (P30291 whole entry): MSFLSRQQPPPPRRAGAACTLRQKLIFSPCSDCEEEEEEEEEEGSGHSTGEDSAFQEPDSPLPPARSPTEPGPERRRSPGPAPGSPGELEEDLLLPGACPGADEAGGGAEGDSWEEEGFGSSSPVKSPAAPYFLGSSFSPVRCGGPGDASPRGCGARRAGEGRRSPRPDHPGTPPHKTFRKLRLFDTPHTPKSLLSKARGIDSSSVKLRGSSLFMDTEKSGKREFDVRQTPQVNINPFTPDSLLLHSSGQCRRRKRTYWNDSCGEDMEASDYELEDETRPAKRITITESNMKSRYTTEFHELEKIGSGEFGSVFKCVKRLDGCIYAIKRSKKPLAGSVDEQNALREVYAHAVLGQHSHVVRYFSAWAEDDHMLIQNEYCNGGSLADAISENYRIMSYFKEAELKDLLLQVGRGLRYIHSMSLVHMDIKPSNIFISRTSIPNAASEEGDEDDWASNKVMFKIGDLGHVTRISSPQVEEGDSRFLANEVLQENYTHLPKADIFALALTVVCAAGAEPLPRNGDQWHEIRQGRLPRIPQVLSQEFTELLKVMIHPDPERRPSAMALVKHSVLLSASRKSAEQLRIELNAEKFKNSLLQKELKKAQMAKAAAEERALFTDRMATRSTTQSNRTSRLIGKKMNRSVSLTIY
Molecule `CC1(C)CNCc2cc(Nc3ncc4c(=O)n(C5CCNCC5)nc(-c5ccccn5)c4n3)ccc21` [Example 305, 2-[(4,4-dimethyl-1,2,3,4-tetrahydroisoquinolin-7-yl)amino]-6-(piperidin-4-yl)-8-(pyridin-2-yl)pyrimido[4,5-d]pyridazin-5(6H)-one] gave a pKi of 6.08. The same measure for `CC1(C)CNCc2cc(Nc3ncc4c(=O)n(-c5cccc6ccccc56)nc(-c5ccccn5)c4n3)ccc21` [Example 306, 2-[(4,4-dimethyl-1,2,3,4-tetrahydroisoquinolin-7-yl)amino]-6-(naphthalen-1-yl)-8-(pyridin-2-yl)pyrimido[4,5-d]pyridazin-5(6H)-one]: 7.30; for `CN1CCN(c2ccc(Nc3ncc4c(=O)n(-c5c(Cl)cccc5Cl)nc(-c5cncs5)c4n3)cc2)CC1` [Example 307, 6-(2,6-dichlorophenyl)-2-{[4-(4-methylpiperazin-1-yl)phenyl]amino}-8-(1,3-thiazol-5-yl)pyrimido[4,5-d]pyridazin-5(6H)-one]: 8.85. The same measure for `Cc1nn(-c2c(F)cccc2Cl)c(=O)c2cnc(Nc3ccc4c(c3)CNCC43CC3)nc12` [Example 308]: 9.00; for `CN1CCN(c2ccc(Nc3ncc4c(=O)n(-c5c(F)cccc5Cl)nc(-c5ccccn5)c4n3)cc2)CC1` [Example 309, 6-(2-chloro-6-fluorophenyl)-2-{[4-(4-methylpiperazin-1-yl)phenyl]amino}-8-(pyridin-2-yl)pyrimido[4,5-d]pyridazin-5(6H)-one]: 6.17.

For `CN1CCN(c2ccc(Nc3ncc4c(=O)n(-c5cnccc5O)nc(-c5ccccn5)c4n3)cc2)CC1` [Example 310, 6-(4-hydroxypyridin-3-yl)-2-{[4-(4-methylpiperazin-1-yl)phenyl]amino}-8-(pyridin-2-yl)pyrimido[4,5-d]pyridazin-5(6H)-one], the pKi was 8.44. `Cc1nn(-c2c(F)cccc2Cl)c(=O)c2cnc(Nc3ccc4c(c3)CN(C)CC4(C)C)nc12` [Example 311, 6-(2-chloro-6-fluorophenyl)-8-methyl-2-[(2,4,4-trimethyl-1,2,3,4-tetrahydroisoquinolin-7-yl)amino]pyrimido[4,5-d]pyridazin-5(6H)-one] showed a negative logarithm of the Ki (pKi) of 9.00. Molecule `Cc1nn(-c2c(F)cccc2Cl)c(=O)c2cnc(Nc3ccc(N4CCN(C)CC4)cc3)nc12` [Example 312, 6-(2-chloro-6-fluorophenyl)-8-methyl-2-{[4-(4-methylpiperazin-1-yl)phenyl]amino}pyrimido[4,5-d]pyridazin-5(6H)-one] had a pKi of 8.72. Molecule `Cc1nn(-c2c(F)cccc2Cl)c(=O)c2cnc(Nc3ccc4c(c3)CN(C)CC43CC3)nc12` [Example 313, 6-(2-chloro-6-fluorophenyl)-8-methyl-2-[(2′-methyl-2′,3′-dihydro-1′H-spiro[cyclopropane-1,4′-isoquinolin]-7′-yl)amino]pyrimido[4,5-d]pyridazin-5(6H)-one] gave a pKi of 8.59.

`Cc1nn(-c2c(Cl)cccc2Cl)c(=O)c2cnc(Nc3ccc(N4CCN(C)CC4)cc3)nc12` [Example 314, 6-(2,6-dichlorophenyl)-8-methyl-2-{[4-(4-methylpiperazin-1-yl)phenyl]amino}pyrimido[4,5-d]pyridazin-5(6H)-one] had a pKi of 8.92. Turning to `O=c1c2cnc(Nc3ccc4c(c3)CNCC43CC3)nc2c(-c2cncs2)nn1-c1c(Cl)cccc1Cl` [Example 315, 6-(2,6-dichlorophenyl)-2-(2′,3′-dihydro-1′H-spiro[cyclopropane-1,4′-isoquinolin]-7′-ylamino)-8-(1,3-thiazol-5-yl)pyrimido[4,5-d]pyridazin-5(6H)-one], the pKi was 8.72.

On to `CN1CCN(c2ccc(Nc3ncc4c(=O)n(-c5c(Cl)cccc5Cl)nc(-c5nccs5)c4n3)cc2)CC1` [Example 316, 6-(2,6-dichlorophenyl)-2-{[4-(4-methylpiperazin-1-yl)phenyl]amino}-8-(1,3-thiazol-2-yl)pyrimido[4,5-d]pyridazin-5(6H)-one], for which the pKi is 8.74. The same measure for `CN1Cc2cc(Nc3ncc4c(=O)n(-c5c(Cl)cccc5Cl)nc(-c5cncs5)c4n3)ccc2C2(CC2)C1` [Example 317, 6-(2,6-dichlorophenyl)-2-[(2′-methyl-2′,3′-dihydro-1′H-spiro[cyclopropane-1,4′-isoquinolin]-7′-yl)amino]-8-(1,3-thiazol-5-yl)pyrimido[4,5-d]pyridazin-5(6H)-one]: 9.42. The same measure for `O=c1c2cnc(Nc3ccc4c(c3)CNCC4)nc2c(-c2cncs2)nn1-c1c(Cl)cccc1Cl` [Example 318, 6-(2,6-dichlorophenyl)-2-(1,2,3,4-tetrahydroisoquinolin-7-ylamino)-8-(1,3-thiazol-5-yl)pyrimido[4,5-d]pyridazin-5(6H)-one]: 9.59; for `O=c1c2cnc(Nc3ccc(N4CCNCC4)cc3)nc2c(-c2cncs2)nn1-c1c(Cl)cccc1Cl` [Example 319, 6-(2,6-dichlorophenyl)-2-{[4-(piperazin-1-yl)phenyl]amino}-8-(1,3-thiazol-5-yl)pyrimido[4,5-d]pyridazin-5(6H)-one]: 9.41; for `CN1Cc2cc(Nc3ncc4c(=O)n(-c5c(Cl)cccc5Cl)nc(-c5nccs5)c4n3)ccc2C2(CC2)C1` [Example 320, 6-(2,6-dichlorophenyl)-2-[(2′-methyl-2′,3′-dihydro-1′H-spiro[cyclopropane-1,4′-isoquinolin]-7′-yl)amino]-8-(1,3-thiazol-2-yl)pyrimido[4,5-d]pyridazin-5(6H)-one]: 9.31. The same measure for `O=c1c2cnc(Nc3ccc(N4CCN(C5COC5)CC4)cc3)nc2c(-c2ccncc2)nn1-c1c(Cl)cccc1Cl` [Example 321, 6-(2,6-dichlorophenyl)-2-({4-[4-(oxetan-3-yl)piperazin-1-yl]phenyl}amino)-8-(pyridin-4-yl)pyrimido[4,5-d]pyridazin-5(6H)-one]: 9.10; for `CN1CCC(n2nc(-c3ccccn3)c3nc(Nc4ccc(N5CCNCC5)cc4)ncc3c2=O)CC1` [Example 322, 6-(1-methylpiperidin-4-yl)-2-{[4-(piperazin-1-yl)phenyl]amino}-8-(pyridin-2-yl)pyrimido[4,5-d]pyridazin-5(6H)-one]: under 5.50. `CN1CCN(c2ccc(Nc3ncc4c(=O)n(-c5c(Cl)cccc5Cl)ncc4n3)cc2)CC1` [Example 323, 6-(2,6-dichlorophenyl)-2-{[4-(4-methylpiperazin-1-yl)phenyl]amino}pyrimido[4,5-d]pyridazin-5(6H)-one] gave a negative logarithm of the Ki (pKi) of 9.31. `CN1Cc2cc(Nc3ncc4c(=O)n(-c5c(Cl)cccc5Cl)ncc4n3)ccc2C2(CC2)C1` [Example 324, 6-(2,6-dichlorophenyl)-2-[(2′-methyl-2′,3′-dihydro-1′H-spiro[cyclopropane-1,4′-isoquinolin]-7′-yl)amino]pyrimido[4,5-d]pyridazin-5(6H)-one] showed a pKi of 9.70. The same measure for `O=c1c2cnc(Nc3ccc(N4CCNCC4)cc3)nc2cnn1-c1c(Cl)cccc1Cl` [Example 325, 6-(2,6-dichlorophenyl)-2-{[4-(piperazin-1-yl)phenyl]amino}pyrimido[4,5-d]pyridazin-5(6H)-one]: 9.15; for `O=c1c2cnc(Nc3ccc4c(c3)CNCC43CC3)nc2cnn1-c1c(Cl)cccc1Cl` [Example 326, 6-(2,6-dichlorophenyl)-2-(2′,3′-dihydro-1′H-spiro[cyclopropane-1,4′-isoquinolin]-7′-ylamino)pyrimido[4,5-d]pyridazin-5(6H)-one]: 9.28.

As usually defined, the pKi is the negative decadic logarithm of the Ki, by convention in mol/L.

For the origin of these results see US8796289B2 (AbbVie Inc., priority 2011, dated 2014).
